Source: PubChem BioAssay (NCI)
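A five-concentration, 48-hour dose response in 96-well plates underlies each endpoint, interpolated linearly between surrounding concentrations. GI50 marks 50% less growth. TGI denotes the concentration required for complete inhibition of growth.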

How the values were obtained:
Assay in all cases: DTP human tumour cell line panel, 48 h
786-0 renal = system: 786-0 renal
A498 renal = system: A498 renal
A549 NSCLC = system: A549 NSCLC
ACHN renal = system: ACHN renal
BT-549 breast = system: BT-549 breast
CAKI-1 renal = system: CAKI-1 renal
CCRF-CEM leukemia = system: CCRF-CEM leukemia
COLO 205 colon = system: COLO 205 colon
DU-145 prostate = system: DU-145 prostate
EKVX NSCLC = system: EKVX NSCLC
HCC-2998 colon = system: HCC-2998 colon
HCT-116 colon = system: HCT-116 colon
HCT-15 colon = system: HCT-15 colon
HL-60(TB) leukemia = system: HL-60(TB) leukemia
HOP-62 NSCLC = system: HOP-62 NSCLC
HOP-92 NSCLC = system: HOP-92 NSCLC
HS 578T breast = system: HS 578T breast
HT29 colon = system: HT29 colon
IGROV1 ovarian = system: IGROV1 ovarian
K-562 leukemia = system: K-562 leukemia
KM12 colon = system: KM12 colon
LOX IMVI melanoma = system: LOX IMVI melanoma
M14 melanoma = system: M14 melanoma
MALME-3M melanoma = system: MALME-3M melanoma
MCF7 breast = system: MCF7 breast
MDA-MB-231 breast = system: MDA-MB-231 breast
MDA-MB-435 = system: MDA-MB-435
MOLT-4 leukemia = system: MOLT-4 leukemia
NCI-H226 lung = system: NCI-H226 lung

For `CCO/C=N/C1=C(C#N)C(c2ccc(Cl)cc2)c2sc3c(CC)cccc3c2O1` (stereo not drawn), the GI50 (786-0 renal) was 2.23 µM, the TGI (786-0 renal) was 14 µM and the GI50 (A498 renal) was 0.416 µM. It also gave a TGI (A498 renal) of 10.7 µM, a GI50 (A549 NSCLC) of 1.25 µM and a TGI (A549 NSCLC) of 17.2 µM. The GI50 (ACHN renal) was 1.21 µM, the TGI (ACHN renal) was 15.4 µM and the GI50 (BT-549 breast) was 2.64 µM. The TGI (BT-549 breast) was 16.5 µM, the GI50 (CAKI-1 renal) was 0.703 µM and the TGI (CAKI-1 renal) was 18 µM. It also gave a GI50 (CCRF-CEM leukemia) of 1.66 µM, a TGI (CCRF-CEM leukemia) of 24.9 µM and a GI50 (COLO 205 colon) of 3.36 µM. For the same compound, the TGI (COLO 205 colon) was 11.1 µM, the GI50 (DU-145 prostate) was 2.49 µM and the TGI (DU-145 prostate) was 12.4 µM. The GI50 (EKVX NSCLC) was 2.11 µM, the TGI (EKVX NSCLC) was 14.8 µM and the GI50 (HCC-2998 colon) was 1.65 µM. It also gave a TGI (HCC-2998 colon) of 4.95 µM, a GI50 (HCT-116 colon) of 0.801 µM and a TGI (HCT-116 colon) of 12.5 µM. The GI50 (HCT-15 colon) was 0.617 µM, the TGI (HCT-15 colon) was 10.6 µM and the GI50 (HL-60(TB) leukemia) was 1.34 µM. It also gave a TGI (HL-60(TB) leukemia) of 11.7 µM, a GI50 (HOP-62 NSCLC) of 4.78 µM and a TGI (HOP-62 NSCLC) of 23.6 µM. For the same compound, the GI50 (HOP-92 NSCLC) was 1.53 µM, the TGI (HOP-92 NSCLC) was 17.8 µM and the GI50 (HS 578T breast) was 1.85 µM. For the same compound, the TGI (HS 578T breast) was 12.6 µM, the GI50 (HT29 colon) was 2.39 µM and the TGI (HT29 colon) was 10.1 µM. For the same compound, the GI50 (IGROV1 ovarian) was 0.702 µM, the TGI (IGROV1 ovarian) was 14.7 µM and the GI50 (K-562 leukemia) was 0.553 µM. It also gave a TGI (K-562 leukemia) of 20.6 µM, a GI50 (KM12 colon) of 0.876 µM and a TGI (KM12 colon) of 12.5 µM. For the same compound, the GI50 (LOX IMVI melanoma) was 1.45 µM, the TGI (LOX IMVI melanoma) was 14.4 µM and the GI50 (M14 melanoma) was 1.21 µM. The TGI (M14 melanoma) was 11.7 µM, the GI50 (MALME-3M melanoma) was 10.1 µM and the TGI (MALME-3M melanoma) was 22.6 µM. The GI50 (MCF7 breast) was 0.475 µM, the TGI (MCF7 breast) was 10.7 µM and the GI50 (MDA-MB-231 breast) was 3.96 µM. For the same compound, the TGI (MDA-MB-231 breast) was 16.9 µM, the GI50 (MDA-MB-435) was 0.307 µM and the TGI (MDA-MB-435) was 0.878 µM. The GI50 (MOLT-4 leukemia) was 3.02 µM, the TGI (MOLT-4 leukemia) was 17 µM and the GI50 (NCI-H226 lung) was 5.94 µM. For the same compound, the TGI (NCI-H226 lung) was 25.3 µM.
